Assay results as given in patent publication US8710074B2, “Dihydronaphthyridinyl(organo)methanone analogs as positive allosteric mGluR5 modulators” (Vanderbilt University, priority 2011, dated 2014).

Each molecule was assayed against human mGluR5 (Homo sapiens, UniProt P41594) (assay: Cell-based functional assay: Ca2+ mobilization (FDSS), potentiation of glutamate EC20 response). Settings: HEK cells transfected with human mGluR5 (H10H or H12H cell line); positive allosteric modulation in presence of glutamate EC20.
Experimental: Human embryonic kidney (HEK) cells transfected with rat mGluR5 were plated in clear bottom assay plates for assay in a Functional Drug Screening System (FDSS). In the alternative assay, HEK cells transfected with human mGluR5 were plated for assay in the FDSS. In some cases the HEK cells transfected with human mGluR5 were the H10H cell line. Alternatively, the HEK cells transfected with human mGluR5 were the H12H cell line. […] The cells were loaded with a Ca^2+-sensitive fluorescent dye (e.g., Fluo-4), and the plates were washed and placed in the FDSS instrument. After establishment of a fluorescence baseline for twelve seconds, the compounds of the present invention were added to the cells, and the response in cells was measured. Alternatively, in various further aspects, after establishment of a fluorescence baseline for about three seconds, the compounds of the present invention were added to the cells, and the response in cells was measured. Five minutes later, an mGluR5 agonist (e.g., glutamate, 3,5-dihydroxyphenylglycine, or quisqualate) was added to the cells, and the response of the cells was measured. Potentiation of the agonist response of mGluR5 by the compounds in the present invention was observed as an increase in response to non-maximal concentrations of agonist (here, glutamate) in the presence of compound compared to the response to agonist in the absence of compound.
The above described assay operated in two modes. In the first mode, a range of concentrations of the present compounds were added to cells, followed by a single fixed concentration of agonist. If a compound acted as a potentiator, an EC50 value for potentiation and a maximum extent of potentiation by the compound at this concentration of agonist was determined by non-linear curve fitting. In the second mode, several fixed concentrations of the present compounds were added to various wells on a plate, followed by a range of concentrations of agonist for each concentration of present compound; the EC50 values for the agonist at each concentration of compound were determined by non-linear curve fitting. A decrease in the EC50 value of the agonist with increasing concentrations of the present compounds (a leftward shift of the agonist concentration-response curve) is an indication of the degree of mGluR5 potentiation at a given concentration of the present compound. An increase in the EC50 value of the agonist with increasing concentrations of the present compounds (a rightward shift of the agonist concentration-response curve) is an indication of the degree of mGluR5 antagonism at a given concentration of the present compound. The second mode also indicates whether the present compounds also affect the maximum response to mGluR5 to agonists.
Table 1 below lists specific compounds as well as experimentally determined mGluR5 activity determined in a cell-based assay. The examples shown in Table I are provided so that the invention might be more fully understood, and these examples are illustrative only and should not be construed as limiting the invention in any way. The mGluR5 activity was determined using the metabotropic glutamate receptor activity assays in human embryonic kidney cells as described herein, wherein the human embryonic kidney cells were transfected with human mGluR5. The compounds in Table 1 were synthesized with methods identical or analogous to those shown herein. The column labeled “Rxn” and the data thereunder indicated in Table 1 refers to the Reaction Scheme number described above. The requisite starting materials were commercially available, described in the literature, or readily synthesized by one skilled in the art of organic synthesis. Compounds shown in Table I are depicted having a basic group or acidic group and named as the free base acid. […]

human mGluR5, sequence (P41594 21-1180 isoform P41594-2 limits assumed): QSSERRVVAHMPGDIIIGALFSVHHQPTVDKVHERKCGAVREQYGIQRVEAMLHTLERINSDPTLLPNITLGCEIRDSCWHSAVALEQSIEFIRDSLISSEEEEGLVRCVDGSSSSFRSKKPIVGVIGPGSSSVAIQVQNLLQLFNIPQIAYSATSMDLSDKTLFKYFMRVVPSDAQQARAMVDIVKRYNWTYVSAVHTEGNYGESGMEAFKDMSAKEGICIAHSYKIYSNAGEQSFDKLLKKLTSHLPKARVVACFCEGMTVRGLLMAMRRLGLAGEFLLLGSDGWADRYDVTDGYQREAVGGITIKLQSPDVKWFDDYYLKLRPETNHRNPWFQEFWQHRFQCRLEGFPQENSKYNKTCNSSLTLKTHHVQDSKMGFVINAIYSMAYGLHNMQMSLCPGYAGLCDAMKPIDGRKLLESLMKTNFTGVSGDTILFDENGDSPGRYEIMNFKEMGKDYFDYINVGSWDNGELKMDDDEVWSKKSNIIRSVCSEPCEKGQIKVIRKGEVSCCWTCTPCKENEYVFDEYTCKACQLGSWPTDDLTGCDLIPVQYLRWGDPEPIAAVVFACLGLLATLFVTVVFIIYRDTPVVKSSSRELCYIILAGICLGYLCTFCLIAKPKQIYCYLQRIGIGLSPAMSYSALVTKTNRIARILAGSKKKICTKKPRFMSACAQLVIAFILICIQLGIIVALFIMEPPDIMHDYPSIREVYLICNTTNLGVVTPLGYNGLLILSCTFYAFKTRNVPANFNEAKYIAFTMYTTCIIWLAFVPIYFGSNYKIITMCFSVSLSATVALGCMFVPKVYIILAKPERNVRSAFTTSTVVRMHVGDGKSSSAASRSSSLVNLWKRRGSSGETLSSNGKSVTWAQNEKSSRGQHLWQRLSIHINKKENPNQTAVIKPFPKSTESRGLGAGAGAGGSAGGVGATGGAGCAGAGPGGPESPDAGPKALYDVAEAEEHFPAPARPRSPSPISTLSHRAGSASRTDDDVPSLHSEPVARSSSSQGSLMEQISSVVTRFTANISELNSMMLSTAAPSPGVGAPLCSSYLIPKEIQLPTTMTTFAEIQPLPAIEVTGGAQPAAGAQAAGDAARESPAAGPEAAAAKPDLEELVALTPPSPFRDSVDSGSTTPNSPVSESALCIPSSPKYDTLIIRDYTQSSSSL

SMILES | EC50 [nM]
O=C(c1ccc(F)cc1)N1CCc2ncc(COc3cccc(F)c3)cc2C1 [Compound 2, (3-((3-fluorophenoxy)methyl)-7,8-dihydro-1,6-naphthyridin-6(5H)-yl) (4-fluorophenyl)methanone] | 690
O=C(c1ccc(F)cc1)N1CCc2ncc(COc3ccccc3)cc2C1 [Compound 1, (4-Fluorophenyl)(3-(phenoxymethyl)-7,8-dihydro-1,6-naphthyridin-6(5H)-yl)methanone] | 380
O=C(c1cccc(F)c1)N1CCc2ncc(OCc3cccc(F)c3)cc2C1 [Compound 5] | > 30000

Next, values leading:

EC50 [nM] | SMILES
> 30000 | O=C(C1CC1)N1CCc2ncc(OCc3cccc(F)c3)cc2C1 [Compound 6]
910 | O=C(c1ccc(F)cc1)N1CCc2ncc(COc3ccc(F)cc3)cc2C1 [Compound 3, (3-((4-fluorophenoxy)methyl)-7,8-dihydro-1,6-naphthyridin-6(5H)-yl)(4-fluorophenyl)methanone]
> 30000 | CC(C)(C)OC(=O)N1CCc2ncc(OCc3cccc(F)c3)cc2C1 [Compound 4]
